Test system: Energy system protein genes
Experiment: DNA chip mRNA expression in yeast, energy system protein genes (Table 4)
Format: cell-based, Saccharomyces cerevisiae S288C
Procedure, shortened: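 Measured as treated-to-untreated fluorescence ratio on a full-genome yeast DNA chip. Cells (S288C, YPD, 25° C.) were exposed in log phase for two hours to one chemical, dosed to curb growth without killing.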

SMILES: [Cl][Cd][Cl] [(2), CdCl2]
- The level of expressed mRNA in the presence of chemical substance/The level of expressed mRNA in the absence of chemical substance (yeast gene YJR048W): 0.9
- The level of expressed mRNA in the presence of chemical substance/The level of expressed mRNA in the absence of chemical substance (yeast gene YJR121W, cells incubated two hours with the chemical substance): 1.1
- The level of expressed mRNA in the presence of chemical substance/The level of expressed mRNA in the absence of chemical substance (yeast gene YJR155W): 3.7
- The level of expressed mRNA in the presence of chemical substance/The level of expressed mRNA in the absence of chemical substance (yeast gene YKL016C, cells incubated two hours with the chemical substance): 1.3
- The level of expressed mRNA in the presence of chemical substance/The level of expressed mRNA in the absence of chemical substance (yeast gene YKL060C, cells incubated two hours with the chemical substance): 0.8
- The level of expressed mRNA in the presence of chemical substance/The level of expressed mRNA in the absence of chemical substance (yeast gene YKL141W, cells incubated two hours with the chemical substance): 1.1
- The level of expressed mRNA in the presence of chemical substance/The level of expressed mRNA in the absence of chemical substance (yeast gene YKL148C, cells incubated two hours with the chemical substance): 0.8
- The level of expressed mRNA in the presence of chemical substance/The level of expressed mRNA in the absence of chemical substance (yeast gene YKR009C, cells incubated two hours with the chemical substance): 1.2
- The level of expressed mRNA in the presence of chemical substance/The level of expressed mRNA in the absence of chemical substance (yeast gene YKR058W, cells incubated two hours with the chemical substance, 25° C., YPD medium): 0.9
- The level of expressed mRNA in the presence of chemical substance/The level of expressed mRNA in the absence of chemical substance (yeast gene YKR097W): 2.4
- The level of expressed mRNA in the presence of chemical substance/The level of expressed mRNA in the absence of chemical substance (yeast gene YLL041C, cells incubated two hours with the chemical substance): 0.5
- The level of expressed mRNA in the presence of chemical substance/The level of expressed mRNA in the absence of chemical substance (yeast gene YLR038C, cells incubated two hours with the chemical substance): 1.1
- The level of expressed mRNA in the presence of chemical substance/The level of expressed mRNA in the absence of chemical substance (yeast gene YLR044C, cells incubated two hours with the chemical substance): 0.6
- The level of expressed mRNA in the presence of chemical substance/The level of expressed mRNA in the absence of chemical substance (yeast gene YLR134W, cells incubated two hours with the chemical substance): 0.6
- The level of expressed mRNA in the presence of chemical substance/The level of expressed mRNA in the absence of chemical substance (yeast gene YLR258W, cells incubated two hours with the chemical substance): 1.0
- The level of expressed mRNA in the presence of chemical substance/The level of expressed mRNA in the absence of chemical substance (yeast gene YLR284C, cells incubated two hours with the chemical substance): 1.0
- The level of expressed mRNA in the presence of chemical substance/The level of expressed mRNA in the absence of chemical substance (yeast gene YLR295C, cells incubated two hours with the chemical substance, 25° C., YPD medium): 1.1
- The level of expressed mRNA in the presence of chemical substance/The level of expressed mRNA in the absence of chemical substance (yeast gene YLR304C, cells incubated two hours with the chemical substance): 0.6
- The level of expressed mRNA in the presence of chemical substance/The level of expressed mRNA in the absence of chemical substance (yeast gene YLR345W): 1.4
- The level of expressed mRNA in the presence of chemical substance/The level of expressed mRNA in the absence of chemical substance (yeast gene YLR354C, cells incubated two hours with the chemical substance): 2.5
- The level of expressed mRNA in the presence of chemical substance/The level of expressed mRNA in the absence of chemical substance (yeast gene YLR377C, cells incubated two hours with the chemical substance): 2.6
- The level of expressed mRNA in the presence of chemical substance/The level of expressed mRNA in the absence of chemical substance (yeast gene YLR395C, cells incubated two hours with the chemical substance): 1.3
- The level of expressed mRNA in the presence of chemical substance/The level of expressed mRNA in the absence of chemical substance (yeast gene YML087C): 1.6
- The level of expressed mRNA in the presence of chemical substance/The level of expressed mRNA in the absence of chemical substance (yeast gene YML120C, cells incubated two hours with the chemical substance): 1.2
- The level of expressed mRNA in the presence of chemical substance/The level of expressed mRNA in the absence of chemical substance (yeast gene YML129C, cells incubated two hours with the chemical substance): 0.9
- The level of expressed mRNA in the presence of chemical substance/The level of expressed mRNA in the absence of chemical substance (yeast gene YMR073C, cells incubated two hours with the chemical substance): 1.1
- The level of expressed mRNA in the presence of chemical substance/The level of expressed mRNA in the absence of chemical substance (yeast gene YMR118C): 2.9
- The level of expressed mRNA in the presence of chemical substance/The level of expressed mRNA in the absence of chemical substance (yeast gene YMR205C, cells incubated two hours with the chemical substance): 0.7
- The level of expressed mRNA in the presence of chemical substance/The level of expressed mRNA in the absence of chemical substance (yeast gene YMR261C, cells incubated two hours with the chemical substance): 1.6
- The level of expressed mRNA in the presence of chemical substance/The level of expressed mRNA in the absence of chemical substance (yeast gene YMR267W, cells incubated two hours with the chemical substance, 25° C., YPD medium): 1.8
- The level of expressed mRNA in the presence of chemical substance/The level of expressed mRNA in the absence of chemical substance (yeast gene YMR323W, cells incubated two hours with the chemical substance): 1.1
- The level of expressed mRNA in the presence of chemical substance/The level of expressed mRNA in the absence of chemical substance (yeast gene YNL071W): 0.9
- The level of expressed mRNA in the presence of chemical substance/The level of expressed mRNA in the absence of chemical substance (yeast gene YNL202W, cells incubated two hours with the chemical substance): 1.3
- The level of expressed mRNA in the presence of chemical substance/The level of expressed mRNA in the absence of chemical substance (yeast gene YNL241C): 2.5
- The level of expressed mRNA in the presence of chemical substance/The level of expressed mRNA in the absence of chemical substance (yeast gene YNL331C): 3.6
- The level of expressed mRNA in the presence of chemical substance/The level of expressed mRNA in the absence of chemical substance (yeast gene YOL086C, cells incubated two hours with the chemical substance): 0.5
- The level of expressed mRNA in the presence of chemical substance/The level of expressed mRNA in the absence of chemical substance (yeast gene YOL165C): 4.5
- The level of expressed mRNA in the presence of chemical substance/The level of expressed mRNA in the absence of chemical substance (yeast gene YOR142W, cells incubated two hours with the chemical substance): 1.2
- The level of expressed mRNA in the presence of chemical substance/The level of expressed mRNA in the absence of chemical substance (yeast gene YOR178C, cells incubated two hours with the chemical substance): 1.3
- The level of expressed mRNA in the presence of chemical substance/The level of expressed mRNA in the absence of chemical substance (yeast gene YOR388C, cells incubated two hours with the chemical substance): 1.6
- The level of expressed mRNA in the presence of chemical substance/The level of expressed mRNA in the absence of chemical substance (yeast gene YPL031C, cells incubated two hours with the chemical substance): 2.0
- The level of expressed mRNA in the presence of chemical substance/The level of expressed mRNA in the absence of chemical substance (yeast gene YPL061W, cells incubated two hours with the chemical substance): 1.4
- The level of expressed mRNA in the presence of chemical substance/The level of expressed mRNA in the absence of chemical substance (yeast gene YPL088W): 1.3
- The level of expressed mRNA in the presence of chemical substance/The level of expressed mRNA in the absence of chemical substance (yeast gene YPL171C): 4.1
- The level of expressed mRNA in the presence of chemical substance/The level of expressed mRNA in the absence of chemical substance (yeast gene YPL240C): 1.4
- The level of expressed mRNA in the presence of chemical substance/The level of expressed mRNA in the absence of chemical substance (yeast gene YPL262W, cells incubated two hours with the chemical substance): 1.7
- The level of expressed mRNA in the presence of chemical substance/The level of expressed mRNA in the absence of chemical substance (yeast gene YPL275W, cells incubated two hours with the chemical substance): 1.5
- The level of expressed mRNA in the presence of chemical substance/The level of expressed mRNA in the absence of chemical substance (yeast gene YPL276W, cells incubated two hours with the chemical substance): 1.5
- The level of expressed mRNA in the presence of chemical substance/The level of expressed mRNA in the absence of chemical substance (yeast gene YPR048W, cells incubated two hours with the chemical substance): 2.0
- The level of expressed mRNA in the presence of chemical substance/The level of expressed mRNA in the absence of chemical substance (yeast gene YPR184W, cells incubated two hours with the chemical substance): 1.4

From US8192962B2, “Processes for detecting toxic substances” (Daikin Industries, Ltd., priority 2001, dated 2012)
